Assay results as given in ChEMBL document CHEMBL5113512, “β-Nitrostyrene derivatives as broad range potential antifungal agents targeting fungal cell wall” (2022).
Values after ≈ are worked out from the molar mass of the structure shown. Active and inactive are the calls of the source. The calls are words filed in the database; no cut-off is given here.

Key:
[1] = test system: Candida; experiment: Downregulation of VPS34 gene expression in Candida cells; assay type: functional, cell-based
[2] = test system: Candida; experiment: Downregulation of RLM1 gene expression in Candida cells; assay type: functional, cell-based
[3] = test system: Candida albicans; experiment: Inhibition of drug efflux in Candida albicans ATCC 24433 overexpressing AD(1-8)u- assessed as […] in nile red efflux incubated for 30 mins by flow cytometry; assay type: functional
[4] = test system: Candida; experiment: Downregulation of CPH1 gene expression in Candida cells; assay type: functional, cell-based
[5] = test system: [Candida] auris; experiment: Antifungal activity against Candida auris 102 assessed as inhibition of fungal growth by broth microdilution method; assay type: functional; conditions: Candidozyma auris
[6] = test system: Candida albicans; experiment: Synergistic antifungal activity against Candida albicans ATCC 24433 assessed as fractional inhibitory concentration index incubated for 48 hrs in presence of caspofungin by checker board assay; assay type: functional
[7] = test system: Candida albicans; experiment: Fungicidal activity against Candida albicans ATCC 24433 assessed as reduction in fungal growth by measuring reduction in colony count at sub-MIC concentration measured after 48 hrs by time kill assay; assay type: functional, organism-based
[8] = test system: Cell membrane; experiment: Disruption of membrane integrity in Candida albicans ATCC 24433 assessed as cell shrinkage and lysis by measuring leakage of intracellular material measured after 6 hrs by SEM analysis; assay type: subcellular
[9] = test system: Candidozyma auris; experiment: Upregulation of CaPHO15 gene expression in Candida auris CBS10913 assessed as increase in glycerol content at sub-inhibitory concentration incubated for 2 hrs; assay type: functional
[10] = test system: Candida albicans; experiment: Synergistic antifungal activity against wild type Candida albicans SN152 assessed as fractional inhibitory concentration index incubated for 48 hrs in presence of Amphotericin B by checker board assay; assay type: functional
[11] = test system: Candida albicans; experiment: Synergistic antifungal activity against Candida albicans SN152 harboring CAS5 mutant assessed as Amphotericin B MIC incubated for 48 hrs by checker board assay; assay type: functional
[12] = test system: Candida albicans; experiment: Synergistic antifungal activity against wild type Candida albicans SN152 assessed as Caspofungin MIC incubated for 48 hrs by checker board assay; assay type: functional
[13] = test system: Candida albicans; experiment: Synergistic antifungal activity against Candida albicans ATCC 24433 assessed as Congo red MIC incubated for 48 hrs by checker board assay; assay type: functional
[14] = test system: Candida albicans; experiment: Synergistic antifungal activity against Candida albicans ATCC 24433 assessed as inhibition of fungal growth incubated for 48 hrs in presence of Congo red by checker board assay; assay type: functional
[15] = test system: Candida albicans; experiment: Synergistic antifungal activity against Candida albicans ATCC 24433 assessed as fractional inhibitory concentration index incubated for 48 hrs in presence of Congo red by checker board assay; assay type: functional
[16] = test system: Candida parapsilosis; experiment: Synergistic antifungal activity against Candida parapsilosis ATCC 90018 assessed as fractional inhibitory concentration index incubated for 48 hrs in presence of Congo red by checker board assay; assay type: functional
[17] = test system: Candida albicans; experiment: Synergistic antifungal activity against Candida albicans ATCC 24433 assessed as Calcoflour White MIC incubated for 48 hrs by checker board assay; assay type: functional
[18] = test system: [Candida] auris; experiment: Synergistic antifungal activity against Candida auris CBS10913 assessed as Calcoflour White MIC incubated for 48 hrs by checker board assay; assay type: functional; conditions: Candidozyma auris
[19] = test system: [Candida] auris; experiment: Synergistic antifungal activity against Candida auris CBS10913 assessed as inhibition of fungal growth incubated for 48 hrs in presence of Calcoflour White by checker board assay; assay type: functional; conditions: Candidozyma auris
[20] = test system: Candida albicans; experiment: Synergistic antifungal activity against Candida albicans ATCC 24433 assessed as SDS MIC incubated for 48 hrs by checker board assay; assay type: functional
[21] = test system: Candida albicans; experiment: Synergistic antifungal activity against Candida albicans ATCC 24433 assessed as inhibition of fungal growth incubated for 48 hrs in presence of SDS by checker board assay; assay type: functional
[22] = test system: Candida albicans; experiment: Antifungal activity against Candida albicans ATCC 24433 overexpressing transporter protein F2 assessed as inhibition of fungal growth by broth microdilution method; assay type: functional
[23] = test system: Candida; experiment: Downregulation of SSZ1 gene expression in Candida cells; assay type: functional, cell-based
[24] = test system: Candida albicans; experiment: Inhibition of drug efflux in Candida albicans ATCC 24433 overexpressing ADPDR5-GFP assessed as reduction in rhodamine 6g efflux preincubated for 45 mins followed by substrate addition and measured after 30 mins; assay type: functional; conditions: dose 0.1-100 µg/ml, time 75.0 min, DDE = dose-dependent effect
[25] = test system: Candida; experiment: Downregulation of PGA57 gene expression in Candida cells; assay type: functional, cell-based
[26] = test system: Candida; experiment: Downregulation of BMT5 gene expression in Candida cells; assay type: functional, cell-based
[27] = test system: Candida; experiment: Downregulation of GUT1 gene expression in Candida cells; assay type: functional, cell-based
[28] = test system: Candida; experiment: Downregulation of STT4 gene expression in Candida cells; assay type: functional, cell-based
[29] = test system: Candida; experiment: Upregulation of VPH2 gene expression in Candida cells; assay type: functional, cell-based
[30] = test system: Candida; experiment: Upregulation of HYM1 gene expression in Candida cells; assay type: functional, cell-based
[31] = test system: Candida; experiment: Upregulation of LSC1 gene expression in Candida cells; assay type: functional, cell-based
[32] = test system: Candida; experiment: Upregulation of LSC2 gene expression in Candida cells; assay type: functional, cell-based

## O=[N+]([O-])/C=C/c1ccc(O)cc1
[1]
  Activity: Active
[2]
  Activity: Active
[3]
  inhibition: Active
[4]
  Activity: Active
[5]
  MIC80: 4 µg/mL (≈ 24.2 µM)
[6]
  fractional inhibitory concentration index (FICI): <3.5
[7]
  Activity: Active
[8]
  Activity: Active
[9]
  Activity: Active
[10]
  fractional inhibitory concentration index (FICI): 0.507
[11]
  MIC: 0.25 µg/mL
[12]
  MIC: 0.0312 µg/mL
[13]
  MIC: 3.12 µg/mL
[14]
  MIC: 0.5 µg/mL
[15]
  fractional inhibitory concentration index (FICI): 0.375
[16]
  fractional inhibitory concentration index (FICI): 0.25
[17]
  MIC: 12.5 µg/mL
[18]
  MIC: 25 µg/mL
[19]
  MIC: 0.25 µg/mL
[20]
  MIC: 12.5 µg/mL
[21]
  MIC: 1 µg/mL
[22]
  MIC80: 2 µg/mL (≈ 12.1 µM)
[23]
  Activity: Active
[24]
  inhibition: Dde
[25]
  Activity: Active
[26]
  Activity: Active
[27]
  Activity: Active
[28]
  Activity: Active
[29]
  Activity: Active
[30]
  Activity: Active
[31]
  Activity: Active
[32]
  Activity: Active
